Earlier results in patent publication US20050119124A1, “Phosphorus and potassium fertilizer for all forms of perennial trees, vines and annual crops” (priority 1999, published 2005).

Conditions: 18C

## OP(O)O [Phosphorous acid, phosphorous acid]
  pK, first acid group: 2.00
  pK, second acid group: 6.59
